Results on 1 compound are retold here after publication PMC7178208 (International Journal of Molecular Sciences, 2020).

In brackets after ≈: the same amount, converted by molar mass. Peptide text beside a SMILES is read from it. * marks the point of attachment. FITC = O=C1OC2(c3ccc(O)cc3Oc3cc(O)ccc32)c2ccc(NC(=S)*)cc21; Ahx = NCCCCCC(=O)O Where only a bound is given, the exact number is not on record here.

Series [1] deals with C. albicans. The series is described as follows: Confocal laser microscopy, localization of FITC peptides. The settings on record: 50 μM FITC-conjugated peptide, 10^7 CFU/mL, SD broth, 28 °C, 5 min. Format: cell-based, Candida albicans. As for the experimental part: Firstly, 10^7 CFU/mL of C. albicans was incubated with 0.25 mM FITC P-113 and 0.25 mM FITC alone (as a negative control) in SD broth at 28 °C for 1, 2, 3, 4, 5, and 6 h. Another experiment was performed to observe the short-term localization of Bip-P-113 and Dip-P-113 peptides. Briefly, log-phase C. albicans cultures were resuspended to a cell density of 10^7 CFU/mL in SD broth and treated for 5 min at 28 °C with 50 μM FITC-conjugated P-113, Bip-P-113, and Dip-P-113. After centrifugation, the cells were washed three times with 20 mM phosphate buffer (pH 7.4) to remove nonbinding peptides and fixed with 4% (w/v) paraformaldehyde in 20 mM phosphate buffer (pH 7.4) at room temperature for 20 min. Following fixation, the cells were centrifuged at 3500× g for 5 min, resuspended in phosphate buffer, and loaded onto a glass slide with a 1.4% solid agarose bed. The images were taken with a confocal laser scanning microscope (LSM 510 META, Carl Zeiss, Jena, Germany) equipped with a 40× C-Apochromat water-immersion objective lens (Carl Zeiss, Jena, Germany).

Series [2] deals with C. albicans. The series is described as follows: Scanning electron microscopy, cell morphology. The note with it: 0.25 mM P-113, 10^7 CFU/mL, SD broth, 28 °C, 1-6 h. The format is cell-based, Candida albicans. As for the experimental part:
Time-course morphological studies of C. albicans were performed by scanning electron microscopy (SEM). Overnight cultures of C. albicans were sub-cultured and grown in SD broth. Then, 10^7 CFU/mL of C. albicans was treated with 0.25 mM P-113 in SD broth at 28 °C. Samples were collected following 1, 2, 3, 4, 5, and 6 h of incubation. Another experiment was performed to observe the morphological changes caused over in a short time caused by Bip-P-113 and Dip-P-113. Briefly, 10^7 CFU/mL of C. albicans in SD broth was treated for 5 min at 28 °C with 50 μM P-113, Bip-P-113, and Dip-P-113. After harvest, cells were resuspended in fixation solution (2.5% glutaraldehyde in 20 mM phosphate buffer pH 7.4) and then placed on Thermanox substrate-coated cover slips at 4 °C for 12 h. The cover slips were carefully washed three times with 20 mM phosphate buffer (pH 7.4), followed by incubation in post-fixation solution (1% OsO4 in 20 mM phosphate buffer pH 7.4) at room temperature for an hour. After being washed three times with 20 mM phosphate buffer (pH 7.4), the cover slips were air-dried for an hour by dehydration with a graded series of ethanol. Samples were gold-coated and observed under an S-4700 field-emission (FE)-SEM (Hitachi, Ltd., Tokyo, Japan) at an acceleration voltage of 5 kV.

The test system of series [3] is C. albicans American Type Culture Collection (ATCC) 10,231. The format is cell-based, Candida albicans. The settings on record: American Type Culture Collection (ATCC) 10,231, 24 h. How it is done: C. albicans (ATCC 10231) from the American Type Culture Collection (Manassas, VA, USA) was cultured at 28 °C on SD agar plates.
To determine the minimum inhibitory concentration (MIC) values of the FITC conjugated-P-113 peptides and their derivatives, a broth microdilution assay was used. Overnight-grown cultures of C. albicans in SD broth were sub-cultured for several hours and subsequently diluted to a final concentration of 5 × 10^4 CFU/mL in Mueller Hinton (MH) broth and LYM broth. A total of 100 μL of diluted microbe was transferred into each well of a 96-well plate, into which a 1 μL dilution series of peptides in sterile water (ranging from 50 to 0.78 μg/mL) was previously added. After incubation for 24 h at 28 ℃, the MIC value of P-113 peptides was determined as the lowest concentration at which no change in optical density was observed. The experiment was conducted three times, and average values were reported.

Series [4] concerns living C. albicans cells (secreted aspartic proteinases, Saps). The experiment in a line: Degradation of P-113 by living C. albicans cells (NMR). Format: in vitro ADME, Candida albicans. As for the experimental part: For living cell NMR experiments, the interaction between ^15N-labeled P-113 peptides and C. albicans was monitored by 2D heteronuclear single quantum coherence (HSQC) spectroscopy. The peptides were dissolved in SD broth for a total volume of 500 μL at a 0.275 mM concentration. After centrifugation, 10^7 CFU/mL of cells were resuspended in 50 μL of SD broth and then titrated into the peptide solution. The ^15N-^1H HSQC spectra were recorded on a Bruker Avance 600-MHz NMR spectrometer in the States-TPPI mode for quadrature detection at 301 K. The ^1H and ^15N carriers were placed at 4.699 and 120 ppm, respectively. After titration, 2D HSQC spectra were collected every hour during 24 h of incubation at 301 K. All spectra were processed with NMRPipe and analyzed using the Sparky program (T.D. Goddard and D.G. Kneller, SPARKY3, University of California, San Francisco, CA, USA).
To obtain sequence assignment information, 3D spectra, including those from HNCA, HN(CO)CA, HNCACB, HN(CO)CACB, HN(CA)CO, and HNCO experiments, were recorded on a Bruker Avance 600-MHz NMR spectrometer at 301 K. The ^13C carriers were placed at 48 ppm for C^α, at 38 ppm for ^13C^α/β and at 174 ppm for C′. All spectra were processed with NMRPipe and analyzed using the Sparky program.
To observe the correlation of amide nitrogen (^15Ni) to the carbon (^13C′) spin in the proceeding residue (^13C′i−1), 2D CON experiments were performed on Bruker Avance 850-MHz NMR spectrometer equipped with a triple-resonance cryogenic probe. The spectra comparing ^15N-, ^13C-labeled P-113 in SD broth and in a C. albicans titration were recorded with the center frequencies at 120 ppm (^15N) and 174 ppm (^13C), respectively. All spectra were processed with NMRPipe and analyzed using the Sparky program.
The inhibition of P-113 degradation by C. albicans was determined using living cell NMR experiments as described above in the presence of 0.5 mM of the aspartic protease inhibitor pepstatin A.

Series [5] deals with Candida albicans. The format is cell-based. The settings on record: 24 h, 1. How it is done:
Figure 7 Time killing activity of FITC-labeled P-113 peptide and its FITC-labeled derivatives against Candida albicans. Cells were treated with 1× MIC of (a) P-113 (black circle), FITC-labeled N-terminal truncated P-113 (black square), FITC-labeled C-terminal truncated P-113 (black triangle), and (b) treated with FITC-labeled Bip-P-113 (white square), and FITC-labeled Dip-P-113 (white triangle). Killed cells (%) = (cell number in peptide-free control − cell number in sample)/(cell number in peptide-free control) × 100. Error bars represent the standard errors of the mean.
C. albicans were cultivated onto Sabouraud dextrose agar plates overnight and sub-cultured twice before time killing assays. A total of 5 × 10^4 CFU/mL of C. albicans cells were treated with 1× MIC of FITC-conjugated P-113 peptides and their derivatives in SD broth for 10, 20, 30, 60, and 120 min at 28 °C. After that time, serial dilutions (1:10) of the incubation mixtures were added onto SD agar. The numbers of CFU were counted after 24 h of incubation at 28 °C. The percentage of killed cells was calculated by comparison with the number of cells in a control sample incubated without P-113 peptide. The assays were performed in triplicate.

For series [6] the following is noted: 0.01% P-113 (0.07 μM) in a mouthrinse treatment, clinical trial; cited from earlier work.

On to `C[C@H](NC(=O)CCCCCNC(=S)Nc1ccc2c(c1)C(=O)OC21c2ccc(O)cc2Oc2cc(O)ccc21)C(=O)N[C@@H](CCCCN)C(=O)N[C@@H](CCCNC(=N)N)C(=O)N[C@@H](Cc1c[nH]cn1)C(=O)N[C@@H](Cc1c[nH]cn1)C(=O)NCC(=O)N[C@@H](Cc1ccc(O)cc1)C(=O)N[C@@H](CCCCN)C(=O)N[C@@H](CCCNC(=N)N)C(=O)N[C@@H](CCCCN)C(=O)N[C@@H](Cc1ccccc1)C(=O)N[C@@H](Cc1c[nH]cn1)C(N)=O` [Peptide P-113] ({FITC-Ahx}-AKRHHGYKRKFH-NH2; N-terminus assumed), for which, in series [1], the “Cellular localization of FITC peptide” value is given as “accumulated in the cytosol”. In addition, in series [2], the “Cell surface morphology (SEM), time course” value is “smooth”. In series [3], the “MIC, LYM Control” value was 3.13 µg/mL (≈ 1.51 µM) and the “MIC, MH Broth” value is reported as above 50 µg/mL. In addition, in series [4] (0.25 mM 15N-,13C-labeled P-113, 10^7 CFU/mL C. albicans, SD broth, 301 K, 24 h, 15N-13C CON and 3D backbone assignment), the Cleavage sites entry was “Tyr7-Lys8, Lys8-Arg9, and Lys10-Phe11”. Also, the “Incubation time to near-complete degradation of P-113” value in series [4] (0.25 mM 15N-labeled P-113 (no FITC), 10^7 CFU/mL C. albicans, SD broth with 10% D2O, 301 K, 1H-15N HSQC every hour) turned out to be 5 h. Moreover, in series [4] (0.25 mM 15N-labeled P-113, 10^7 CFU/mL C. albicans, SD broth, 301 K, new HSQC cross-peaks), the “Time at which the first cleavage (Lys10-Phe11) was observed” value was 1 h. The “Changes in 1H-15N HSQC chemical shifts (degradation) in the presence of pepstatin A” value in series [4] (0.25 mM P-113, 10^7 CFU/mL C. albicans + 0.5 mM pepstatin A, 301 K, 24 h) is listed as “no noticeable changes”. Also, the “Changes in chemical shifts (degradation) at cell densities below 10^7 cells/mL” value in series [4] (0.25 mM P-113, C. albicans below 10^7 cells/mL, data not shown) is reported as “did not show any noticeable changes”. The same compound came in with a Killed cells in series [5] of 87%. Also, in series [6], the “Effect on gingivitis and plaque” value was “reduced the development of gingivitis and plaque”.
